Measurements: patent publication US12435044B2, “Pyridazinone herbicides and pyridazinone intermediates used to prepare a herbicide” (FMC Corporation, priority 2018, dated 2025)

Columns and labels:
Assay in all cases: Test C pre-/postemergence greenhouse test
Type in all cases: in vivo
[1] = test system: morningglory (Ipomoea coccinea); conditions: scale 0 to 100
Description: (§1) Seeds of plant species selected from blackgrass (Alopecurus myosuroides), ryegrass, Italian (Lolium multiflorum), wheat, winter (winter wheat, Triticum aestivum), galium (catchweed bedstraw, Galium aparine), corn (Zea mays), crabgrass, large (Digitaria sanguinalis), foxtail, giant (Setaria faberii), johnsongrass (Sorghum halepense), lambsquarters (Chenopodium album), morningglory (Ipomoea coccinea), nutsedge, yellow (Cyperus esculentus), pigweed (Amaranthus retroflexus), ragweed (common ragweed, Ambrosia elatior), soybean (Glycine max), barnyardgrass (Echinochloa crus-galli), oilseed rape (Brassica napus), waterhemp (common waterhemp, Amaranthus rudis), pigweed, palmer (Amaranthus palmeri), kochia (Kochia scoparia), oat, wild (Avena fatua), surinam grass (Brachiaria decumbens), windgrass (Apera spica-venti), poinsettia, wild (Euphorbia heterophylla) and velvetleaf (Abutilon theophrasti) were planted into a silt loam soil and treated preemergence with test chemicals formulated in a non-phytotoxic solvent mixture which included a surfactant.
(§2) At the same time, plants selected from these crop and weed species and also chickweed (common chickweed, Stellaria media), buckwheat, wild (Polygonum convolvulus), mustard, wild (Sinapis arvensis), field poppy (Papaver rhoeas), field violet (Viola arvensis), nightshade (eastern black nightshade, Solanum ptycanthum), speedwell (bird's-eye speedwell, Veronica persica), horseweed (Conyza canadensis), cutleaf geranium (Geranium dissectum), and Canada thistle (Cirsium arvense) were planted in pots containing Redi-Earth® planting medium (Scotts Company, 14111 Scottslawn Road, Marysville, Ohio 43041) comprising spaghnum peat moss, vermiculite, wetting agent and starter nutrients and treated with postemergence applications of test chemicals formulated in the same manner. Plants ranged in height from 2 to 18 cm (1- to 4-leaf stage) for postemergence treatments. Treated plants and controls were maintained in a greenhouse for 13 to 21 d, after which time all species were compared to controls and visually evaluated. Plant response ratings, summarized in Table C-1 (postemergence) and C-2 (preemergence), are based on a scale of 0 to 100 where 0 is no effect and 100 is complete control. A dash (-) response means no test result.

[2] = test system: velvetleaf (Abutilon theophrasti); conditions: scale 0 to 100
Description: as §1, §2

kochia (Kochia scoparia) = conditions: Postemergence, scale 0 to 100
Description: as §1, §2

[3] = test system: waterhemp (common waterhemp, Amaranthus rudis); conditions: scale 0 to 100
Description: as §1, §2

oat, wild (Avena fatua) = conditions: Postemergence, scale 0 to 100
Description: as §1, §2

corn (Zea mays) = conditions: scale 0 to 100
Description: as §1, §2

[4] = test system: ragweed (common ragweed, Ambrosia elatior); conditions: scale 0 to 100
Description: as §1, §2

soybean (Glycine max) = conditions: scale 0 to 100
Description: as §1, §2

[5] = test system: galium (catchweed bedstraw, Galium aparine); conditions: scale 0 to 100
Description: as §1, §2

[6] = test system: lambsquarters (Chenopodium album); conditions: scale 0 to 100
Description: as §1, §2

[7] = test system: nutsedge, yellow (Cyperus esculentus); conditions: scale 0 to 100
Description: as §1, §2

[8] = test system: oilseed rape (Brassica napus); conditions: scale 0 to 100
Description: as §1, §2

Cc1ccc2ccc(C)c(-c3c(O)c(Cl)nn(C)c3=O)c2c1 [Cpd. No. 20, 6-chloro-4-(2,7-dimethyl-1-naphthalenyl)-5-hydroxy-2-methyl-3(2H)-pyridazinone]
Plant response rating, Morningglory ([1]; Postemergence, 16 g ai/ha): 100 | Plant response rating, Morningglory ([1]; Postemergence, 31 g ai/ha): 100 | Plant response rating, Morningglory ([1]; Postemergence, 62 g ai/ha): 100 | Plant response rating, Morningglory ([1]; Postemergence, 125 g ai/ha): 100 | Plant response rating, Morningglory ([1]; Preemergence, 31 g ai/ha): 85 | Plant response rating, Morningglory ([1]; Preemergence, 61 g ai/ha): 70 | Plant response rating, Morningglory ([1]; Preemergence, 62 g ai/ha): 95 | Plant response rating, Morningglory ([1]; Preemergence, 125 g ai/ha): 95 | Plant response rating, Velvetleaf ([2]; Postemergence, 16 g ai/ha): 70 | Plant response rating, Velvetleaf ([2]; Postemergence, 31 g ai/ha): 75 | Plant response rating, Velvetleaf ([2]; Postemergence, 62 g ai/ha): 85 | Plant response rating, Velvetleaf ([2]; Postemergence, 125 g ai/ha): 90 | Plant response rating, Velvetleaf ([2]; Preemergence, 31 g ai/ha): 100 | Plant response rating, Velvetleaf ([2]; Preemergence, 61 g ai/ha): 85 | Plant response rating, Velvetleaf ([2]; Preemergence, 62 g ai/ha): 100 | Plant response rating, Velvetleaf ([2]; Preemergence, 125 g ai/ha): 100 | Plant response rating, Kochia (kochia (Kochia scoparia); 16 g ai/ha): 80 | Plant response rating, Kochia (kochia (Kochia scoparia); 31 g ai/ha): 85 | Plant response rating, Kochia (kochia (Kochia scoparia); 62 g ai/ha): 90 | Plant response rating, Kochia (kochia (Kochia scoparia); 125 g ai/ha): 98 | Plant response rating, Waterhemp ([3]; Postemergence, 16 g ai/ha): 75 | Plant response rating, Waterhemp ([3]; Postemergence, 31 g ai/ha): 70 | Plant response rating, Waterhemp ([3]; Postemergence, 62 g ai/ha): 95 | Plant response rating, Waterhemp ([3]; Postemergence, 125 g ai/ha): 95 | Plant response rating, Waterhemp ([3]; Preemergence, 31 g ai/ha): 100 | Plant response rating, Waterhemp ([3]; Preemergence, 61 g ai/ha): 65 | Plant response rating, Waterhemp ([3]; Preemergence, 62 g ai/ha): 100 | Plant response rating, Waterhemp ([3]; Preemergence, 125 g ai/ha): 100 | Plant response rating, Oat, Wild (oat, wild (Avena fatua); 16 g ai/ha): 35 | Plant response rating, Oat, Wild (oat, wild (Avena fatua); 31 g ai/ha): 55 | Plant response rating, Oat, Wild (oat, wild (Avena fatua); 62 g ai/ha): 70 | Plant response rating, Oat, Wild (oat, wild (Avena fatua); 125 g ai/ha): 90 | Plant response rating, Corn (corn (Zea mays); Postemergence, 16 g ai/ha): 0 | Plant response rating, Corn (corn (Zea mays); Postemergence, 31 g ai/ha): 5 | Plant response rating, Corn (corn (Zea mays); Postemergence, 62 g ai/ha): 5 | Plant response rating, Corn (corn (Zea mays); Postemergence, 125 g ai/ha): 20 | Plant response rating, Corn (corn (Zea mays); Preemergence, 31 g ai/ha): 0 | Plant response rating, Corn (corn (Zea mays); Preemergence, 61 g ai/ha): 0 | Plant response rating, Corn (corn (Zea mays); Preemergence, 62 g ai/ha): 5 | Plant response rating, Corn (corn (Zea mays); Preemergence, 125 g ai/ha): 35 | Plant response rating, Ragweed ([4]; Postemergence, 16 g ai/ha): 85 | Plant response rating, Ragweed ([4]; Postemergence, 31 g ai/ha): 90 | Plant response rating, Ragweed ([4]; Postemergence, 62 g ai/ha): 95 | Plant response rating, Ragweed ([4]; Postemergence, 125 g ai/ha): 98 | Plant response rating, Ragweed ([4]; Preemergence, 31 g ai/ha): 100 | Plant response rating, Ragweed ([4]; Preemergence, 61 g ai/ha): 65 | Plant response rating, Ragweed ([4]; Preemergence, 62 g ai/ha): 100 | Plant response rating, Ragweed ([4]; Preemergence, 125 g ai/ha): 100 | Plant response rating, Soybean (soybean (Glycine max); Postemergence, 16 g ai/ha): 0 | Plant response rating, Soybean (soybean (Glycine max); Postemergence, 31 g ai/ha): 10 | Plant response rating, Soybean (soybean (Glycine max); Postemergence, 62 g ai/ha): 10 | Plant response rating, Soybean (soybean (Glycine max); Postemergence, 125 g ai/ha): 20 | Plant response rating, Soybean (soybean (Glycine max); Preemergence, 31 g ai/ha): 0 | Plant response rating, Soybean (soybean (Glycine max); Preemergence, 61 g ai/ha): 0 | Plant response rating, Soybean (soybean (Glycine max); Preemergence, 62 g ai/ha): 20 | Plant response rating, Soybean (soybean (Glycine max); Preemergence, 125 g ai/ha): 60 | Plant response rating, Galium ([5]; Postemergence, 16 g ai/ha): 95 | Plant response rating, Galium ([5]; Postemergence, 31 g ai/ha): 95 | Plant response rating, Galium ([5]; Postemergence, 62 g ai/ha): 95 | Plant response rating, Galium ([5]; Postemergence, 125 g ai/ha): 95 | Plant response rating, Galium ([5]; Preemergence, 31 g ai/ha): 100 | Plant response rating, Galium ([5]; Preemergence, 61 g ai/ha): 98 | Plant response rating, Galium ([5]; Preemergence, 62 g ai/ha): 100 | Plant response rating, Galium ([5]; Preemergence, 125 g ai/ha): 100 | Plant response rating, Lambsquarters ([6]; Postemergence, 16 g ai/ha): 75 | Plant response rating, Lambsquarters ([6]; Postemergence, 31 g ai/ha): 90 | Plant response rating, Lambsquarters ([6]; Postemergence, 62 g ai/ha): 95 | Plant response rating, Lambsquarters ([6]; Postemergence, 125 g ai/ha): 95 | Plant response rating, Lambsquarters ([6]; Preemergence, 31 g ai/ha): 75 | Plant response rating, Lambsquarters ([6]; Preemergence, 61 g ai/ha): 80 | Plant response rating, Lambsquarters ([6]; Preemergence, 62 g ai/ha): 100 | Plant response rating, Lambsquarters ([6]; Preemergence, 125 g ai/ha): 100 | Plant response rating, Nutsedge, Yellow ([7]; Postemergence, 16 g ai/ha): 90 | Plant response rating, Nutsedge, Yellow ([7]; Postemergence, 31 g ai/ha): 90 | Plant response rating, Nutsedge, Yellow ([7]; Postemergence, 62 g ai/ha): 95 | Plant response rating, Nutsedge, Yellow ([7]; Postemergence, 125 g ai/ha): 98 | Plant response rating, Nutsedge, Yellow ([7]; Preemergence, 31 g ai/ha): 95 | Plant response rating, Nutsedge, Yellow ([7]; Preemergence, 61 g ai/ha): 40 | Plant response rating, Nutsedge, Yellow ([7]; Preemergence, 62 g ai/ha): 95 | Plant response rating, Nutsedge, Yellow ([7]; Preemergence, 125 g ai/ha): 98 | Plant response rating, Oilseed Rape ([8]; Postemergence, 16 g ai/ha): 0 | Plant response rating, Oilseed Rape ([8]; Postemergence, 31 g ai/ha): 0 | Plant response rating, Oilseed Rape ([8]; Postemergence, 62 g ai/ha): 0 | Plant response rating, Oilseed Rape ([8]; Postemergence, 125 g ai/ha): 0 | Plant response rating, Oilseed Rape ([8]; Preemergence, 31 g ai/ha): 0 | Plant response rating, Oilseed Rape ([8]; Preemergence, 61 g ai/ha): 0 | Plant response rating, Oilseed Rape ([8]; Preemergence, 62 g ai/ha): 0 | Plant response rating, Oilseed Rape ([8]; Preemergence, 125 g ai/ha): 0
